From PubChem BioAssay AID652282 (Vanderbilt Specialized Chemistry Center, 2013)
Activity calls are given as the source filed them. How the calls were made is not given here.

Assays:
[1] = test system: BMP4-induced signaling reporter cell assay; assay: BMP4 signaling inhibitors, SAR follow-up, reporter cells (AID 652282)
[2] = as above; details: BMP4-induced signaling reporter cell assay; at 10 µM (top of the series)

IC50 [1] | Compound | remaining activity % [2]
172 nM | c1cc(N2CCOCC2)ccc1-c1cnc2c(-c3cn[nH]c3)cnn2c1 | –
– | COc1ccc(-c2cnc3c(-c4ccnc5ccccc45)cnn3c2)cc1 | -16.3
4500 nM | COc1ccc(-c2cnc3c(-c4ccnc5ccsc45)cnn3c2)cc1 | –
274 nM | c1ccc2c(-c3cnn4cc(-c5ccc(N6CCOCC6)cc5)cnc34)csc2c1 | –
– | c1ccc2c(-c3cnn4cc(-c5ccc(N6CCOCC6)cc5)cnc34)ccnc2c1 | -11
6700 nM (inactive) | COc1ccc(-c2cnc3c(-c4cccc5cccnc45)cnn3c2)cc1 | –
4900 nM | COc1ccc(-c2cnc3c(-c4cncc5ccccc45)cnn3c2)cc1 | –
225 nM | c1ccc2c(-c3cnn4cc(-c5ccc(N6CCNCC6)cc5)cnc34)csc2c1 | –
– | c1cc(N2CCNCC2)ccc1-c1cnc2c(-c3cn[nH]c3)cnn2c1 | -11.7
38 nM | COc1ccc(-c2cnc3c(-c4ccnc5ncccc45)cnn3c2)cc1 | –
270 nM | Clc1cc(-c2cnn3cc(-c4ccc(N5CCNCC5)cc4)cnc23)ccn1 | –
609 nM | Clc1cc(-c2cnn3cc(-c4ccc(N5CCOCC5)cc4)cnc23)ccn1 | –
152 nM | COc1ccc(-c2cnc3c(-c4cccc5ncccc45)cnn3c2)cc1 | –
